pKapp_sign data for four substances are collected here from publication PMC12808100, “The non-catalytic DNA polymerase ε subunit is an NPF motif recognition protein” (Nature Communications, 2025).

For the assay, the target named is His6-avi-MBP-tagged POLE2. The experiment in a line: Single-point nHU-MS with recombinant His6-avi-MBP-POLE2 bait, Jurkat extract. It is filed as binding, human. The note with it: significant apparent affinity of endogenous prey protein for POLE2 bait; single-point nHU-MS; Figure S11. From the text:
So far, our study only focused on a few hand-picked NPF motifs and studied them as short synthetic peptides. However, many other proteins may be present in the proteome that could bind to POLE2 and their putative NPF motifs are embedded in their natural structures that can greatly affect their binding properties. To investigate interactions between POLE2 and intact, full length proteins proteome-wide, we used nHU-MS experiments with recombinant His6-avi-MBP-tagged POLE2 as bait and purified His6-avi-MBP as a control. Even though we are aware that this recombinant POLE2 may bind to NPF motifs with a somewhat altered affinity, we assumed that this would affect all NPF motif-mediated interactions equally, allowing an unbiased affinity ranking of all identified partners. Single point nHU measurements were performed at 26 μM POLE2 concentration and the recovered supernatant was measured by label free proteomic MS measurements (Fig. 3A, Supplementary Figs. 8A, 9, Supplementary Data 1).
Single-point nHU experiments with protein baits were carried out nearly identically with two key modifications. First, the resin saturation step was carried out by mixing 50 μl streptavidin resin with 0.5−1 ml 50 μM biotinylated protein solution and the mixture was incubated for 1.5 h at 4 °C with constant agitation. Second, instead of using estimated bait concentrations, we measured it experimentally. An extra aliquot of resin stock was prepared alongside the nHU samples that were identically processed that were used to eluate the immobilized proteins under harsh conditions, in order to experimentally quantify the Cbait by using densitometry of Coomassie stained SDS-PAGE that included a protein calibration series. For this, 50 μl bait-saturated resin aliquots were mixed with 200 μl 4x Laemmli Sample Buffer (120 mM Tris-HCl pH 7, 8% SDS, 100 mM DTT, 32% glycerol, 0.004% bromphenol blue, 1% β-mercaptoethanol), instead of cell extract. After 15 min incubation at 95 °C, these samples were analyzed by SDS-PAGE using protein calibration standard, made from recombinant MBP. Densitometry was carried out after Coomassie staining on raw Tif images by using Fiji ImageJ 1.53c and experimental bait concentration were determined by adjusting for molecular weight differences between MBP and MBP-POLE2 constructs.
Samples were digested overnight at 37 °C.
Regarding “HARISSTSHT [TRIP11, endogenous full length prey protein]”, the pKapp_sign turned out to be 4.056.

In the case of KSVD [MYCBP2], the pKapp_sign stood at 4.444. In the case of “TSSTPE [AGFG1, endogenous full length prey protein]” it was 4.872; in that of NSVD [GYS1], 4.403.
